The source of these data is US7846891B2, “Self-assembling peptides for regeneration and repair of neural tissue” (Massachusetts Institute of Technology, priority 2003, dated 2010).

Data set [1] relates to optic tract within the superior colliculus (brain wound). The experiment in a line: Optic tract transection (knife wound in superior colliculus) in P2 hamster pups; histology and CT-B axon tracing. It is filed as in vivo, Syrian hamster. Here is the method: Animals and surgery. Syrian hamster pups at two days of age (P2) were anesthetized with whole-body cooling. […] At surgery, 10 animals were treated by injection into the brain wound of 10 microliters of 1% SAP RADA16-I (n-RADARADARADARADA-c; SEQ ID NO: 1) prepared by dissolving peptide in sterile water. The overlying scalp was then closed with tissue glue (cyanoacrylic). The pups were returned to the cage, placed under a heat lamp, and monitored until they recovered. After recovery the hamster pups were returned to their mother. Control animals with the same lesion included 3 with isotonic saline injection (10 microliters), and 27 earlier cases with knife cuts and no injection.
(§1) Axon tracing method. Four days before the animals were sacrificed they were anesthetized with intraperitoneal injection of Valium (50 mg/kg) and Nembutal (10 mg/kg). […]. This was accomplished with the aid of glass micropipette (tip diameter ˜10 μm) attached to a General Valve Pico Spritzer as previously described. The subjects were then returned to their cages, under a heat lamp, and monitored until they recovered.
Histology. The animals were sacrificed with an overdose of anesthesia 4 days after the intraocular injection of CT-B and were then perfused transcardially with PBS buffer (pH 7.4) followed by 2% paraformaldehyde in 0.1M phosphate buffer (pH 7.4). The brains and eyes were removed and postfixed at 4° C. until they sank. The tissue was cut on a cryostat in 30 micron coronal sections. These sections were mounted directly on gelatin-coated slides. The mounted sections were first air dried, then washed with PBS (pH 7.4) three times at 10 min intervals, and then preblocked in PBS (pH 7.4) containing 2% Triton X-100, 2% normal rabbit serum, and 2.5% bovine serum albumin for 30 min at room temperature. The slides were then incubated with goat anti-cholaragenoid (List Biological Lab, Inc.) (1:8000 dilution)+2% Triton X-100, 2% normal rabbit serum, and 2.5% bovine serum albumin for 48 hours at room temperature. Slides were then washed in PBS (pH 7.4) for three rounds of 10 min each. Sections were incubated with fluorescent donkey anti-IgG antibody Alexa-488 (secondary antibody from Molecular Probes, Inc.) (1:200 dilution) for 1 her 30 min at room temperature in a light protected chamber. Slides were then washed in PBS (pH 7.4) 4 to 5 times at 5 min intervals. The slides were then cover-slipped with Dabco. The slides were visualized through a fluorescent microscope and pictures were taken with a Kodak DCS 620 digital camera. […]

The test system of data set [2] is brachium of the superior colliculus (brain wound). The data set can be described thus: Visually elicited orienting (head turning) test after transection of the brachium of the superior colliculus in adult hamsters. The conditions noted are these: BSC transected at 2 months of age, 10 ul of 1% SAP at surgery, testing from day 44-46, listed as SAP. It is filed as in vivo, Syrian hamster. Here is the method: Thus functional recovery of severed axons can be assessed by evaluating visually elicited head turning at various times after infliction of a lesion that severs the brachium, such as those described in Example 1.
To determine the extent of return of vision the animals are tested for visually elicited orienting responses. The identity of the animal is unknown to the investigator during testing periods. Before behavioral testing, the animals are habituated to the testing environment. Videotaping of the response is accomplished by the use of an overhead Sony digital video (DV) recorder. Some of the trials are simultaneously taped from the side with another Sony DV recorder. Later the video is analyzed frame-by-frame on a 21-inch monitor. All of the cameras are time synchronized. The first type of analysis is to determine if the trial is valid or invalid. Once a trial is judged as valid it is analyzed frame by frame, which enables us to plot the position of the stimulus with respect to the initial head location. The angle of the head at the beginning of the turning movement is set to zero. […]
The y axis represents the number of times the animal turned toward the stimulus during testing, expressed as a percentage of the number of times the stimulus was presented on the side that had received the lesion and SAP treatment. […]

A short description of data set [3]: Self-assembly of SAP on addition to CSF in vitro. It is filed as physicochemical. To be noted: data not shown.
The test system of data set [4] is brachium of the superior colliculus (brain wound). The data set can be described thus: Histology and CT-B axon tracing after transection of the brachium of the superior colliculus in adult hamsters. It counts as in vivo, Syrian hamster. The conditions noted are these: BSC transection; for axon growth through the lesion site (CT-B tracing) / tissue reconnection / repair at the lesion site (histology): 10 ul of 1% SAP, section 2 months after injection. How it is done: as §1
Histology. The animals were sacrificed with an overdose of anesthesia 4 days after the intraocular injection of CT-B and were then perfused transcardially with PBS buffer (pH 7.4) followed by 2% paraformaldehyde in 0.1M phosphate buffer (pH 7.4). The brains and eyes were removed and postfixed at 4° C. until they sank. The tissue was cut on a cryostat in 30 micron coronal sections. These sections were mounted directly on gelatin-coated slides. The mounted sections were first air dried, then washed with PBS (pH 7.4) three times at 10 min intervals, and then preblocked in PBS (pH 7.4) containing 2% Triton X-100, 2% normal rabbit serum, and 2.5% bovine serum albumin for 30 min at room temperature. The slides were then incubated with goat anti-cholaragenoid (List Biological Lab, Inc.) (1:8000 dilution)+2% Triton X-100, 2% normal rabbit serum, and 2.5% bovine serum albumin for 48 hours at room temperature. Slides were then washed in PBS (pH 7.4) for three rounds of 10 min each. Sections were incubated with fluorescent donkey anti-IgG antibody Alexa-488 (secondary antibody from Molecular Probes, Inc.) (1:200 dilution) for 1 her 30 min at room temperature in a light protected chamber. Slides were then washed in PBS (pH 7.4) 4 to 5 times at 5 min intervals. The slides were then cover-slipped with Dabco. The slides were visualized through a fluorescent microscope and pictures were taken with a Kodak DCS 620 digital camera.
At the time of surgery, animals were treated by injection of 10 ul of 1% SAP RAD16-I into the brain wound. Animals were allowed to recover from surgery and maintained under standard laboratory conditions.
. Axon tracing and histology were performed as described above to allow visualization of the lesion site and assessment of axon regrowth. FIG. 10 is a parasagittal section of the dorsal midbrain of a hamster. Rostral is left and caudual is right. The section is from an 8 month old hamster and was taken 2 months following infliction of the lesion. The bright yellow in the middle of the picture that extends from the lower left to the upper right is in the middle of the lesion site. Retinal projections show as gray. Note the axons extending through the center of the cut. […] In addition, the tissue has reconnected at the lesion site in a similar manner to that observed in the younger animals.

“Also recorded” adds a separate entry of the source.

On to n-RADARADARADARADA-c [RADA16-I], for which the “axon regrowth across the lesion (cholera-toxin labeling)” value in data set [1] (1 month hamster, lesion at P2 injected with 10 microliters of 1% SAP) is reported as “axons have extended from a location proximal to the lesion to a distal location”. Besides, in data set [1] (2 months after lesion and injection of SAP), the “scar at lesion site (bright-field image)” value is reported as “minimal nature of the scar”. In data set [1] (lesion at P2, 10 ul of 1% SAP), the “re-innervation of the caudal SC by the severed retinofugal axons” value is “partial re-innervation of the caudal SC”. Besides, the “tissue reconnection across the lesion (histology)” value in data set [1] (lesion at P2, 10 ul of 1% SAP injected into brain wound, survival 1, 3, 6, 30 or 60 days, vs saline and no-injection controls (χ^2=34.8, df (1), p<<0.001)) is listed as “the tissue appears to have reconnected across the lesion at all survival times”. For the same substance, in data set [2], the “behavioral recovery (response to visual stimulus)” value is “significant behavioral recovery; also recorded: return of functional vision in six animals”. Moreover, the “self-assembly in CSF” value in data set [3] was “resulted in self-assembly to form a peptide scaffold”. For the same substance, the “re-innervation of the SC by the severed retinofugal axons” value in data set [4] (10 ul of 1% SAP at surgery) is “partial re-innervation of the SC”. For the same substance, in data set [4] (listed as RAD16-I), the “axon growth through the lesion site (CT-B tracing)” value is on record as “axons have extended their processes to the superior colliculus” and the “tissue reconnection / repair at the lesion site (histology)” value is given as “All of the tissue has repaired itself”. In data set [4] (listed as SAP), the “axon growth through the lesion site (CT-B tracing)” value is given as “axons growing through the site where the cut transected the brachium of the superior colliculus” and the “tissue reconnection / repair at the lesion site (histology)” value is “neural tissue reconnected across the site of the lesion”.
